Values quoted from earlier work, collected in PubChem BioAssay AID1259409 (Chemical Carcinogenesis Research Information System (CCRIS), 2018).

Tested on: rodent chemically induced tumor inhibition, incidence and multiplicity
Experiment: CCRIS tumor inhibitor studies
Details: for outcome: Carcinogen: 7,12-Dimethylbenz[a]anthracene, 57-97-6 and 12-O-Tetradecanoylphorbol-13-acetate, Dose [Inhibitor]: 50 ug/ml in acetone by topical application starting on the 16th wk and continuing to end of study (study duration: 30 wk, Route [Inhibitor]: Skin, Species: Mouse, Strain/Sex: Albino/Sex not given, Target Tissue: Type of Lesion: Skin, Dose [Carcinogen]: DMBA in acetone, 100 ug/ml, single topical dose, TPA in acetone, 10 ug/ml, topical administration twice a wk for 15 wk

CC1=C(/C=C/C(C)=C/C=C/C(C)=C\C(=O)O)C(C)(C)CCC1
tumour outcome (control, treated, inhibition, significance) (Carcinogen: 1,2-DIMETHYLHYDRAZINE, 540-73-8, Dose [Inhibitor]: 67 µM/G DIET, Route [Inhibitor]: ORAL, Species: RAT, Strain/Sex: SPRAGUE-DAWLEY/MALE, Target Tissue: Type of Lesion: COLON: TUMOR, Dose [Carcinogen]: 30 MG/KG BW 1/WK FOR 5 WK, Promoter: NONE USED): 20/20 (100%), 8/20 (40%), 60%, not calculated | tumour outcome (control, treated, inhibition, significance) (Carcinogen: 1,2-DIMETHYLHYDRAZINE, 5400-73-8, Dose [Inhibitor]: 67 UG/G DIET FED SIMULTANEOUSLY DURING CARCINOGEN TREATMENT (STUDY DURATION: 46 WK), Route [Inhibitor]: ORAL, Species: RAT, Strain/Sex: WISTAR/FEMALE, Target Tissue: Type of Lesion: COLON: ADENOCARCINOMA, Dose [Carcinogen]: 15 MG/KG BW/WK FOR 28 WK, Promoter: NONE USED): 8/12 (67%), 5/10 (50%), 25%, not significant | tumour outcome (control, treated, inhibition, significance) (Carcinogen: 1,2-DIMETHYLHYDRAZINE, 5400-73-8, Dose [Inhibitor]: 67 UG/G DIET FED SIMULTANEOUSLY DURING CARCINOGEN TREATMENT (STUDY DURATION: 46 WK), Route [Inhibitor]: ORAL, Species: RAT, Strain/Sex: WISTAR/FEMALE, Target Tissue: Type of Lesion: SMALL INTESTINE: ADENOCARCINOMA, Dose [Carcinogen]: 15 MG/KG BW/WK FOR 28 WK, Promoter: NONE USED): 8/12 (67%), 9/10 (90%), -34%, not significant | tumour outcome (control, treated, inhibition, significance) (Carcinogen: 3-METHYLCHOLANTHRENE, 56-49-5, Dose [Inhibitor]: 3 MG IN 0.1 ML ACETONE STARTING 2 WK AFTER START OF CARCINOGEN TREATMENT AND APPLIED 2/WK DURING WK 3-5 OF THE STUDY AND, Route [Inhibitor]: DERMAL, Species: MOUSE, Strain/Sex: SWISS/FEMALE, Target Tissue: Type of Lesion: SKIN: CARCINOMA, Dose [Carcinogen]: 0.1 ML OF 0.3% DISSOLVED IN ACETONE APPLIED 2/WK FIRST 5 WK THEN 1/WK FOR WK 6-9 FOLLOWED BY NO FURTHER TREATMENT THROUG, Promoter: NONE USED): 5/19 (26%), 2/20 (10%), 62%, not calculated | tumour outcome (control, treated, inhibition, significance) (Carcinogen: 3-METHYLCHOLANTHRENE, 56-49-5, Dose [Inhibitor]: 3 MG IN 0.1 ML ACETONE STARTING 2 WK AFTER START OF CARCINOGEN TREATMENT AND APPLIED 2/WK DURING WK 3-5 OF THE STUDY AND, Route [Inhibitor]: DERMAL, Species: MOUSE, Strain/Sex: SWISS/FEMALE, Target Tissue: Type of Lesion: SKIN: PAPILLOMA, Dose [Carcinogen]: 0.1 ML OF 0.3% DISSOLVED IN ACETONE APPLIED 2/WK FIRST 5 WK THEN 1/WK FOR WK 6-9 FOLLOWED BY NO FURTHER TREATMENT THROUG, Promoter: NONE USED): 9/19 (47%), 4/20 (20%), 57%, not calculated | outcome (16561-29-8, 16561-29-8): malignant lesions: 4/20 (20%), 4/20 (20%), not significant | outcome (16561-29-8, 16561-29-8, Promoter: None): malignant lesions: 5/20 (20%), 4/20 (20%), not significant | tumour outcome (control, treated, inhibition, significance) (Carcinogen: AZOXYMETHANE, 25843-45-2, Dose [Inhibitor]: 50 MG/KG DIET DAILY STARTING SIMULTANEOUSLY WITH CARCINOGEN TREATMENT AND CONTINUING THROUGH END OF STUDY (STUDY DURATIO, Route [Inhibitor]: ORAL, Species: RAT, Strain/Sex: SPRAGUE-DAWLEY/MALE, Target Tissue: Type of Lesion: LARGE INTESTINE: MALIGNANT TUMOR, Dose [Carcinogen]: 8 MG/KG BW 1/WK FOR 8 WK, Promoter: NONE USED): 90%, 90%, 0%, not significant | tumour outcome (control, treated, inhibition, significance) (Carcinogen: AZOXYMETHANE, 25843-45-2, Dose [Inhibitor]: 50 MG/KG DIET DAILY STARTING SIMULTANEOUSLY WITH CARCINOGEN TREATMENT AND CONTINUING THROUGH END OF STUDY (STUDY DURATIO, Route [Inhibitor]: ORAL, Species: RAT, Strain/Sex: SPRAGUE-DAWLEY/MALE, Target Tissue: Type of Lesion: SMALL INTESTINE: MALIGNANT TUMOR, Dose [Carcinogen]: 8 MG/KG BW 1/WK FOR 8 WK, Promoter: NONE USED): 90%, 83%, 8%, not significant | tumour outcome (control, treated, inhibition, significance) (Carcinogen: AZOXYMETHANE, 25843-45-2, Dose [Inhibitor]: 50 MG/KG IN DIET DAILY FOR 26 WK STARTING SIMULTANEOUSLY WITH CARCINOGEN TREATMENT (STUDY DURATION: 26 WK), Route [Inhibitor]: ORAL, Species: RAT, Strain/Sex: SPRAGUE-DAWLEY/MALE, Target Tissue: Type of Lesion: LARGE INTESTINE: MALIGNANT TUMOR, Dose [Carcinogen]: 8 MG/KG BW 1/WK FOR 8 WK, Promoter: NONE USED): 90%, 90%, 0%, not significant | tumour outcome (control, treated, inhibition, significance) (Carcinogen: AZOXYMETHANE, 25843-45-2, Dose [Inhibitor]: 50 MG/KG IN DIET DAILY FOR 26 WK STARTING SIMULTANEOUSLY WITH CARCINOGEN TREATMENT (STUDY DURATION: 26 WK), Route [Inhibitor]: ORAL, Species: RAT, Strain/Sex: SPRAGUE-DAWLEY/MALE, Target Tissue: Type of Lesion: SMALL INTESTINE: TUMOR, Dose [Carcinogen]: 8 MG/KG BW 1/WK FOR 8 WK, Promoter: NONE USED): 90%, 83%, 8%, not significant | tumour outcome (control, treated, inhibition, significance) (Carcinogen: BENZO[A]PYENE, 50-32-8, Dose [Inhibitor]: 17 NMOL 2/WK 0.5 HR BEFORE EACH PROMOTER APPLICATION FOR 24 WK STARTING 7 D AFTER CARCINOGEN APPLICATION (STUDY DURATION, Route [Inhibitor]: DERMAL, Species: MOUSE, Strain/Sex: SENCAR, Target Tissue: Type of Lesion: SKIN: PAPILLOMA, Dose [Carcinogen]: 400 NMOL ONCE, Promoter: ANTHRALIN, 1143-38-0): 73%, 83%, -14%, not significant | tumour outcome (control, treated, inhibition, significance) (Carcinogen: BENZO[A]PYENE, 50-32-8, Dose [Inhibitor]: 34 NMOL ONCE 0.5 HR BEFORE CARCINOGEN APPLICATION (STUDY DURATION: 25 WK), Route [Inhibitor]: DERMAL, Species: MOUSE, Strain/Sex: CD-1/FEMALE, Target Tissue: Type of Lesion: SKIN: PAPILLOMA, Dose [Carcinogen]: 200 NMOL IN 0.2 ML ACETONE ONCE 0.5 HR AFTER AGENT TREATMENT, Promoter: 12-O-TETRADECANOYLPHORBOL-13-ACETATE, 16561-29-8): 90%, 98%, -9%, not significant | tumour outcome (control, treated, inhibition, significance) (Carcinogen: BENZO[A]PYRENE, 50-32-8, Dose [Inhibitor]: 0, 240 MG/KG OF DIET FOR 6 WK (STUDY DURATION: 9 WK), Route [Inhibitor]: ORAL, Species: MOUSE, Strain/Sex: NIGP(S)/FEMALE, Target Tissue: Type of Lesion: LUNG: ADENOMA, Dose [Carcinogen]: 0.5 MG INJECTED IN THE SCAPULAR REGION OF NEWBORN MICE ONCE, Promoter: NONE USED): 35%, 55%, -57%, not calculated | tumour outcome (control, treated, inhibition, significance) (Carcinogen: BENZO[A]PYRENE, 50-32-8, Dose [Inhibitor]: 0, 240 MG/KG OF DIET FOR 6 WK (STUDY DURATION: 9 WK), Route [Inhibitor]: ORAL, Species: MOUSE, Strain/Sex: NIGP(S)/MALE, Target Tissue: Type of Lesion: LUNG: ADENOMA, Dose [Carcinogen]: 0.5 MG INJECTED IN THE SCAPULAR REGION OF NEWBORN MICE ONCE, Promoter: NONE USED): 48%, 42%, 13%, not calculated | tumour outcome (control, treated, inhibition, significance) (Carcinogen: N,N-DIMETHYLNITROSAMINE, 62-75-9, Dose [Inhibitor]: 240 MG/KG OF DIET DAILY FOR 3 WK STARTING 2 D AFTER CARCINOGEN TREATMENT AT 6 WK OF AGE AND THEN OBSERVED UNTIL DEATH (S, Route [Inhibitor]: ORAL, Species: RAT, Strain/Sex: WISTAR/FEMALE, Target Tissue: Type of Lesion: KIDNEY: MESENCHYMAL TUMOR, Dose [Carcinogen]: 40 MG/KG BW ONCE, Promoter: NONE USED): 22/27 (82%), 27/32 (84%), -2%, not significant | tumour outcome (control, treated, inhibition, significance) (Carcinogen: N,N-DIMETHYLNITROSAMINE, 62-75-9, Dose [Inhibitor]: 240 MG/KG OF DIET DAILY FOR 3 WK STARTING 2 D AFTER CARCINOGEN TREATMENT AT 6 WKOF AGE AND THEN OBSERVED UNTIL DEATH (ST, Route [Inhibitor]: ORAL, Species: RAT, Strain/Sex: WISTAR/FEMALE, Target Tissue: Type of Lesion: KIDNEY: EPITHELIAL TUMOR (ADENOMA, ADENOCARCINOMA), Dose [Carcinogen]: 40 MG/KG BW ONCE, Promoter: NONE USED): 13/27 (48%), 17/32 (53%), -10%, not significant | tumour outcome (control, treated, inhibition, significance) (Carcinogen: N,N-DIMETHYLNITROSAMINE, 62-75-9, Dose [Inhibitor]: 240 MG/KG OF DIET DAILY FOR 10 WK STARTING 2 D AFTER CARCINOGEN TREATMENT AT 6 WK OF AGE AND THEN OBSERVED UNTIL DEATH (, Route [Inhibitor]: ORAL, Species: RAT, Strain/Sex: WISTAR/FEMALE, Target Tissue: Type of Lesion: KIDNEY: EPITHELIAL TUMOR (ADENOMA, ADENOCARCINOMA), Dose [Carcinogen]: 40 MG/KG BW ONCE, Promoter: NONE USED): 13/27 (48%), 11/29 (38%), 21%, not significant | tumour outcome (control, treated, inhibition, significance) (Carcinogen: N,N-DIMETHYLNITROSAMINE, 62-75-9, Dose [Inhibitor]: 240 MG/KG OF DIET DAILY FOR 26 WK STARTING 2 D AFTER CARCINOGEN TREATMENT AT 6 WK OF AGE AND THEN OBSERVED UNTIL DEATH (, Route [Inhibitor]: ORAL, Species: RAT, Strain/Sex: WISTAR/FEMALE, Target Tissue: Type of Lesion: KIDNEY: EPITHELIAL TUMOR (ADENOMA, ADENOCARCINOMA), Dose [Carcinogen]: 40 MG/KG BW ONCE, Promoter: NONE USED): 13/27 (48%), 11/21 (52%), -8%, not significant | tumour outcome (control, treated, inhibition, significance) (Carcinogen: N,N-DIMETHYLNITROSAMINE, 62-75-9, Dose [Inhibitor]: 240 MG/KG OF DIET DAILY FOR 26 WK STARTING 2 D AFTER CARCINOGEN TREATMENT AT 6 WK OF AGE AND THEN OBSERVED UNTIL DEATH (, Route [Inhibitor]: ORAL, Species: RAT, Strain/Sex: WISTAR/FEMALE, Target Tissue: Type of Lesion: KIDNEY: MESENCHYMAL TUMOR, Dose [Carcinogen]: 40 MG/KG BW ONCE, Promoter: NONE USED): 22/27 (82%), 21/21 (100%), -22%, not significant | tumour outcome (control, treated, inhibition, significance) (Carcinogen: N-(4-(5-NITRO-2-FURYL)-2-THIAZOLYL)FORMAMIDE, 24554-26-5, Dose [Inhibitor]: 120 MG/KG DIET DAILY STARTING 1 WK AFTER COMPLETION OF CARCINOGEN TREATMENT AND CONTINUING UNTIL END OF STUDY (STUDY DUR, Route [Inhibitor]: ORAL, Species: RAT, Strain/Sex: F344/FEMALE, Target Tissue: Type of Lesion: URINARY BLADDER: CARCINOMA, Dose [Carcinogen]: 2 G/KG DIET DAILY FOR 10 WK, Promoter: NONE USED): 36/100 (36%), 42/100 (42%), -17%, p 0.135
